Measured values as given in the supplement of paper PMC10307832.

Columns and labels:
Assay in all cases: relative viability (nuclei count vs DMSO), 5 days (fraction); higher = more cells survive
Sulindac = compound: CC1=C(CC(=O)O)c2cc(F)ccc2/C1=C\c1ccc([S+](C)[O-])cc1 [Sulindac]
Procedure, shortened: (§1)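 Lung cancer cell lines received five library-drug doses (not always all listed) spaced by √10, pinned on vehicle-anchored 1536-well plates after an overnight stay at 37 °C. Five days later, with no medium change, nuclei were Hoechst-stained, imaged at 4× and counted with MetaXpress. Viability is treated-well nuclei relative to vehicle-well nuclei, as a median across plates. Passing plates had control CV below 25% and at least one doubling.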

5-Fluorouracil = compound: O=c1[nH]cc(F)c(=O)[nH]1 [5-Fluorouracil]
Procedure, shortened: as §1

Staurosporine = compound: CN[C@@H]1C[C@H]2O[C@@](C)([C@@H]1OC)n1c3ccccc3c3c4c(c5c6ccccc6n2c5c31)C(=O)NC4 [Staurosporine]
Procedure, shortened: as §1

Cell Line | relative viability (Sulindac; 0.08 µM) | relative viability (Sulindac; 0.253 µM) | relative viability (Sulindac; 0.8 µM) | relative viability (Sulindac; 2.53 µM) | relative viability (Sulindac; 8 µM) | relative viability (5-Fluorouracil; 0.02 µM) | relative viability (5-Fluorouracil; 0.2 µM) | relative viability (5-Fluorouracil; 0.6325 µM) | relative viability (5-Fluorouracil; 2 µM) | relative viability (Staurosporine; 0.005 µM) | relative viability (Staurosporine; 0.01581 µM) | relative viability (Staurosporine; 0.05 µM) | relative viability (Staurosporine; 0.1581 µM) | relative viability (Staurosporine; 0.5 µM)
201T | 1.02 | 1 | 1 | 0.977 | 1.09 | 0.997 | 0.774 | 0.345 | 0.335 | 0.968 | 0.564 | 0.854 | 0.563 | 0.279
A549 | 1.13 | 1.04 | 0.754 | 1.05 | 1.17 | 1.08 | 0.854 | 0.338 | 0.136 | 0.716 | 0.377 | 0.256 | 0.0723 | 0.0395
A-427 | 1.16 | 1.01 | 0.894 | 1 | 1.15 | 0.939 | 1.03 | 0.9 | 0.575 | 0.799 | 0.236 | 0.337 | 0.146 | 0.139
ABC-1 | 1.07 | 0.871 | 0.981 | 0.838 | 1.3 | 1.04 | 1.03 | 0.847 | 0.788 | 0.42 | 0.283 | 0.262 | 0.172 | 0.129
BEN | 1.13 | 0.963 | 0.853 | 0.967 | 1.16 | 0.912 | 0.865 | 0.68 | 0.675 | 1.12 | 0.905 | 0.516 | 0.396 | 0.237
CAL-12T | 1.05 | 1.09 | 0.864 | 0.946 | 1.12 | 1.08 | 1.03 | 0.659 | 0.448 | 0.34 | 0.223 |  | 0.15 | 0.144
COR-L23 | 1.41 | 1.08 | 0.7 | 1.01 | 1.22 | 1 | 0.995 | 0.476 | 0.278 | 0.765 | 0.443 | 0.289 | 0.123 | 0.0808
COR-L 105 | 1.03 | 0.894 | 0.891 | 0.91 | 1.25 | 0.896 | 0.927 | 0.819 | 0.5 | 0.636 | 0.295 | 0.357 | 0.274 | 0.193
Calu-6 | 1.11 | 1.03 | 0.835 | 1.04 | 1.22 | 1.07 | 1.04 | 0.872 | 0.508 | 0.912 | 0.553 | 0.41 | 0.126 | 0.0704
ChaGo-K-1 | 1.09 | 1.02 | 0.863 | 1.03 | 1.12 | 1.01 | 0.964 | 0.766 | 0.612 | 1.03 |  | 0.871 | 0.307 | 0.228
EBC-1 | 1.12 | 1.14 | 0.705 | 1.09 | 1.1 | 1.03 | 0.979 | 0.934 | 0.619 | 0.623 | 0.395 | 0.239 | 0.2 | 0.12
EKVX | 1.05 | 1.01 | 0.832 | 0.941 | 1.08 | 0.835 | 0.312 |  | 0.176 | 0.758 | 0.417 | 0.351 | 0.256 | 0.146
EMC-BAC-2 | 1.09 | 0.976 | 0.869 | 0.968 | 1.19 | 1.07 | 1.06 | 1.03 | 0.924 | 0.437 | 0.213 | 0.222 | 0.21 | 0.259
EPLC-272H | 0.97 | 0.797 | 0.762 | 0.857 | 1.18 | 0.732 | 0.706 | 0.397 | 0.262 | 0.781 | 0.192 | 0.247 | 0.106 | 0.0993
H3255 | 0.943 | 0.968 | 0.884 | 1 | 1.1 | 0.901 | 1.09 | 0.89 | 0.712 | 0.596 | 0.432 | 0.363 | 0.267 | 0.145
HARA | 1.1 | 1.01 | 0.899 | 0.979 | 1.11 | 1.03 | 1.33 | 1 | 0.573 | 0.696 | 0.387 | 0.36 | 0.219 | 0.108
HCC-15 | 1.14 | 1.07 | 0.843 | 0.986 | 1.13 | 1.04 | 1.11 | 0.711 | 0.413 | 0.92 |  | 0.636 | 0.137 | 0.119
HCC-44 | 0.986 | 1.01 | 1.02 | 0.935 | 1.04 | 1.05 | 0.941 | 0.55 | 0.349 | 1.01 | 0.384 | 0.404 | 0.228 | 0.14
HCC-78 | 1.14 | 0.958 | 0.759 | 0.913 | 0.961 | 0.896 | 1.13 | 0.603 | 0.404 | 0.88 | 0.666 | 0.586 | 0.363 | 0.353

Cell Line | relative viability (Sulindac; 0.08 µM) | relative viability (Sulindac; 0.253 µM) | relative viability (Sulindac; 0.8 µM) | relative viability (Sulindac; 2.53 µM) | relative viability (Sulindac; 8 µM) | relative viability (5-Fluorouracil; 0.02 µM) | relative viability (5-Fluorouracil; 0.2 µM) | relative viability (5-Fluorouracil; 0.6325 µM) | relative viability (5-Fluorouracil; 2 µM) | relative viability (Staurosporine; 0.005 µM) | relative viability (Staurosporine; 0.01581 µM) | relative viability (Staurosporine; 0.05 µM) | relative viability (Staurosporine; 0.1581 µM) | relative viability (Staurosporine; 0.5 µM)
HCC-366 | 1.2 | 1.08 | 0.757 | 1 | 1.08 | 1.03 | 1.02 | 0.687 | 0.138 | 1.05 |  | 0.911 | 0.15 | 0.0345
HCC-827 | 0.99 | 1.09 | 0.97 | 0.957 | 1.09 | 0.855 | 1.01 | 0.667 | 0.469 | 1.03 | 0.701 | 0.723 | 0.48 | 0.36
HOP-62 | 1.17 | 1.13 | 0.926 | 1.13 | 1.09 | 1.03 | 1 | 0.971 | 0.877 | 0.83 | 0.298 | 0.183 | 0.138 | 0.109
IA-LM | 0.835 | 1.07 |  | 1.02 | 1.01 | 0.939 | 0.519 | 0.295 | 0.241 | 0.46 | 0.177 | 0.17 | 0.107 | 0.0831
LC-2-ad | 1.19 | 1.03 | 0.845 | 0.978 | 1.1 | 0.987 | 0.946 | 0.53 | 0.298 | 0.929 | 0.256 | 0.381 | 0.17 | 0.129
LCLC-97TM1 | 1.05 | 1.04 | 0.925 | 0.813 | 1.17 | 0.988 | 1.07 | 0.729 | 0.533 | 1.02 | 0.282 | 0.27 | 0.265 | 0.212
LCLC-103H | 1.08 | 1.09 | 0.902 | 0.955 | 1.06 | 1.05 | 0.976 | 0.889 | 0.577 | 0.973 | 0.336 | 0.393 | 0.233 | 0.234
LK-2 | 1.23 | 1.06 | 0.78 | 0.738 | 1.21 | 1.16 | 0.989 | 0.8 | 0.574 | 1.17 | 1.06 | 0.874 | 0.366 | 0.243
LOU-NH91 | 0.989 | 0.982 | 0.944 | 0.922 | 1.11 | 0.99 | 1.1 | 0.734 | 0.39 | 0.921 | 0.603 | 0.613 | 0.294 | 0.275
LU99A | 1.02 | 0.982 | 0.922 | 0.845 | 1.09 | 0.943 | 0.999 | 0.845 | 0.624 | 0.912 | 0.569 | 0.422 | 0.211 | 0.131
LXF-289 | 1.11 | 1.05 | 0.994 | 1.02 | 1.08 | 0.961 | 0.912 | 0.434 | 0.301 | 1.02 | 0.652 | 0.477 | 0.0851 | 0.127
NCI-H23 | 1.19 | 0.802 | 0.701 | 0.799 | 1.15 | 1 | 1.13 | 0.601 | 0.387 | 0.704 | 0.139 | 0.367 | 0.164 | 0.117
NCI-H322M | 0.951 | 0.921 | 0.869 | 0.903 | 0.989 | 0.954 | 0.923 | 0.791 | 0.651 | 1.13 | 0.491 | 0.58 | 0.387 | 0.344
NCI-H358 | 0.918 | 1.01 | 0.74 | 0.999 | 1.16 | 1 | 1.05 | 0.882 | 0.584 | 1.03 | 0.326 | 0.203 | 0.117 | 0.104
NCI-H441 | 1.34 | 1.25 | 0.78 | 1.09 | 1.37 | 0.887 | 0.866 | 0.591 | 0.385 | 0.889 | 0.275 | 0.266 | 0.18 | 0.129
NCI-H460 | 1.29 | 1.06 | 0.906 | 0.976 | 1.06 | 0.99 | 0.72 | 0.165 | 0.0713 | 0.963 | 0.762 | 0.824 | 0.0553 | 0.0329
NCI-H520 | 1.16 | 1.08 | 0.891 | 0.957 | 1.06 | 0.923 | 1.06 | 0.73 | 0.516 | 1.14 | 0.706 | 0.698 | 0.272 | 0.163
NCI-H522 | 0.911 | 1.19 | 0.834 | 0.912 | 1.14 | 1.03 | 1 | 0.83 | 0.855 | 1 | 0.686 | 0.782 | 0.501 | 0.437
NCI-H596 | 0.975 | 1.03 | 0.846 | 1.02 | 1.04 | 1.01 | 0.981 | 0.718 | 0.439 |  | 0.54 | 0.792 | 0.204 | 0.151
